SMILES strings stand for the structures.

The target of this test is T1, N-terminally GST-tagged DLK (catalytic domain amino acid 1-520) (Homo sapiens, UniProt Q12852).
T1 construct: N-terminally GST-tagged DLK (catalytic domain amino acid 1-520); purchased Carna Bioscience
T1 sequence (Q12852 1-520): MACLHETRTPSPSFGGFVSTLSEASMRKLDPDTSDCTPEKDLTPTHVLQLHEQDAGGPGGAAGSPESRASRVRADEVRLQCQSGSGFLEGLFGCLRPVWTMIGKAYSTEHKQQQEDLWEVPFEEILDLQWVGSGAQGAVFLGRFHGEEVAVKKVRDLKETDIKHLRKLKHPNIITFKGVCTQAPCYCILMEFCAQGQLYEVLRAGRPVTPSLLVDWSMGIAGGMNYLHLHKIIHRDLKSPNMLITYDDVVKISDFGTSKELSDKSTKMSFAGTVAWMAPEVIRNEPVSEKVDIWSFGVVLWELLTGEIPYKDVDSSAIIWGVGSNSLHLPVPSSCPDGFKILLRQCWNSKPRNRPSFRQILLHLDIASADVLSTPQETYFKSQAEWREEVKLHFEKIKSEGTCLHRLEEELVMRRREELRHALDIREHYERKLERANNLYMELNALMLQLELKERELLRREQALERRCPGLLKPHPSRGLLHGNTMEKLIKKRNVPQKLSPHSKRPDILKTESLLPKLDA
Briefly: DLK TR-FRET inhibition assay. Particulars: 5 nM GST-DLK, 40 nM HIS-MKK4 K131M substrate, 30 μM ATP, 60 minutes at ambient temperature. Type of test: biochemical. As for the experimental part:
DLK TR-FRET inhibition assay: DLK kinase reactions (20 μL) containing 5 nM N-terminally GST-tagged DLK (catalytic domain amino acid 1-520) (Carna Bioscience), 40 nM N-terminally HIS-tagged MKK4 K131M substrate, and 30 μM ATP in kinase reaction buffer (50 mM HEPES, pH 7.5, 0.01% Triton X-100, 0.01% Bovine γ-Globulins, 2 mM DTT, 10 mM MgCl2 and 1 mM EGTA), and testing compound 1:3 serial diluted starting at 20 uM were incubated at ambient temperature for 60 minutes in 384 well OptiPlate (Perkin Elmer). To quench kinase reactions and detect phosphorylated MKK4, 15 μL of TR-FRET antibody mixture containing 2 nM anti-phosphorylated MKK4 labeled with Europium cryptate (Cisbio) and 23 nM anti-HIS labeled with D2 (Cisbio) in detection buffer (25 mM Tris pH 7.5, 100 mM NaCl, 100 mM EDTA, 0.01% Tween-20, and 200 mM KF) was added to the reaction mixture. The detection mixture was incubated for 3 hours at ambient temperature and the TR-FRET was detected with an EnVision multilabel plate reader (Perkin-Elmer) using the LANCE/DELFIA Dual Enh label from Perkin-Elmer (excitation filter: UV2 (TRF) 320 and emission filters: APC 665 and Europium 615).
A general note: TR-FRET usually uses a lanthanide donor and a delayed reading to cut background.
With `CC(C)n1nc(-c2cnc(N)c(OC(F)F)c2)cc1[C@H]1[C@@H]2C[C@H](NCC(F)F)C[C@@H]21` [compound 252, 5-(5-((1R,3r,5S,6r)-3-((2,2-difluoro-ethyl)amino)bicyclo[3.1.0]hexan-6-yl)-1-isopropyl-1H-pyrazol-3-yl)-3-(difluoromethoxy) pyridin-2-amine], affinity was put at a Ki of 3 nM. The figure for `CC(C)n1nc(-c2cnc(N)c(OC(F)(F)F)c2)cc1[C@H]1[C@@H]2C[C@H](N(C)CC3COC3)C[C@@H]21` [compound 19, 5-(1-isopropyl-5-((1R,3r,5S,6r)-3-(methyl(oxetan-3-ylmethyl)amino)bicyclo[3.1.0]hexan-6-yl)-1H-pyrazol-3-yl)-3-(trifluoro-methoxy)pyridin-2-amine] is 2.97 nM. The molecule `Nc1ncc(-c2cc([C@H]3[C@@H]4C[C@@H](N5CCOCC5)C[C@@H]43)n(CC(F)F)n2)cc1OC(F)(F)F` [compound 165, 5-(1-(2,2-difluoroethyl)-5-((1R,3s,5S,6r)-3-morpholinobicyclo [3.1.0]hexan-6-yl)-1H-pyrazol-3-yl)-3-(trifluoromethoxy) pyridin-2-amine] returned a Ki of 1.6 nM. Compared with the last molecule, the Ki is about 1.9-fold lower. Molecule `CC(C)n1nc(-c2cnc(N)c(OC(F)F)c2)cc1[C@H]1[C@@H]2C[C@@H](O)C[C@@H]21` [compound 6, (1R,3s,5S,6r)-6-(3-(6-amino-5-(difluoromethoxy)pyridin-3-yl)-1-isopropyl-1H-pyrazol-5-yl) bicyclo[3.1.0]hexan-3-ol] displayed a Ki of 14.4 nM. The figure for `COCCN(C)[C@H]1C[C@@H]2[C@H](C1)[C@H]2c1cc(-c2cnc(N)c(C(F)(F)F)c2)nn1C(C)C` [compound 284, 5-(1-isopropyl-5-((1R,3r,5S,6r)-3-((2-methoxyethyl)(methyl)amino)bicyclo[3.l.0]hexan-6-yl)-1H-pyrazol-3-yl)-3-(trifluoromethyl) pyridin-2-amine] is 5.7 nM; for `CC(C)n1nc(-c2cnc(N)c(OC(F)F)c2)cc1[C@H]1[C@@H]2CC(N3CCOCC(F)C3)C[C@@H]21` (single isomer, unassigned) [compound 169] it is 4.1 nM.

`COCC1(F)C[C@@H]2[C@H](C1)[C@H]2c1cc(-c2cnc(N)c(C(F)(F)F)c2)nn1C(C)C` (stereo partly drawn) [compound 166, 5-(5-((1R,5S,6r)-3-fluoro-3-(methoxymethyl)bicyclo[3.1.0]hexan-6-yl)-1-isopropyl-1H-pyrazol-3-yl)-3-(trifluoromethyl)pyridin-2-amine] showed a Ki of 6.7 nM.

In turn, `CC(C)n1nc(-c2cnc(N)c(OC(F)(F)F)c2)cc1[C@H]1[C@@H]2C[C@@H](N3CC4(COC4)C3)C[C@@H]21` [compound 58, 5-(5-((1R,3s,5S,6r)-3-(2-oxa-6-azaspiro[3.3]heptan-6-yl)bicyclo [3.1.0]hexan-6-yl)-1-isopropyl-1H-pyrazol-3-yl)-3-(trifluoromethoxy)pyridin-2-amine] displayed a Ki of 1.86 nM.

In the case of `Nc1ncc(-c2cc([C@@H]3[C@@H]4C[C@H](N5CCOCC5)C[C@@H]43)n(CC3CC3)n2)cc1OC(F)(F)F` [compound 283, 5-(1-(cyclopropylmethyl)-5-((1R,3r,5S,6s)-3-morpholinobicyclo [3.1.0]hexan-6-yl)-1H-pyrazol-3-yl)-3-(tritluoromethoxy) pyridin-2-amine], the inhibitory constant (Ki) came out at 209 nM. Compared with the last molecule, the Ki is about 110-fold higher.

Molecule `CC(C)n1nc(-c2cnc(N)c(C(F)(F)F)c2)cc1[C@H]1[C@@H]2C[C@H](N3CCO[C@@H](C)C3)C[C@@H]21` [compound 108, 5-(1-isopropyl-5-((1R,3r,5S,6S)-3-((S)-2-methylmorpholino)bicyclo[3.1.0]hexan-6-yl)-1H-pyrazol-3-yl)-3-(trifluoromethyl) pyridin-2-amine] returned a Ki of 1.6 nM. The result for `CC(C)n1nc(-c2cnc(N)c(C(F)(F)F)c2)cc1[C@H]1[C@@H]2C[C@@H](N(C)C)C[C@@H]21` [compound 189, 5-(5-((1R,3s,5S,6r)-3-(dimethylamino)bicyclo[3.1.0]hexan-6-yl)-1-isopropyl-1H-pyrazol-3-yl)-3-(trifluoromethyl)pyridin-2-amine] reads 2.9 nM. The molecule `CO[C@@H]1CCN([C@@H]2C[C@@H]3[C@H](C2)[C@H]3c2cc(-c3cnc(N)c(OC(F)(F)F)c3)nn2C(C)C)C1` [compound 193, 5-(1-isopropyl-5-((1R,3s,5S,6R)-3-((R)-3-methoxypyrrolidin-1-yl)bicyclo[3.1.0]hexan-6-yl)-1H-pyrazol-3-yl)-3-(trifluoromethoxy) pyridin-2-amine] displayed a Ki of 1.4 nM. The result for `CC(C)n1nc(-c2cnc(N)c(OC(F)F)c2)cc1[C@H]1[C@@H]2C[C@H](N3CC4CC(C3)O4)C[C@@H]21` [compound 271, 5-(5-((1R,3r,5S,6r)-3-(6-oxa-3-azabicyclo[3.1.1]heptan-3-yl)bicyclo[3.1.0]hexan-6-yl)-1-iso-propyl-1H-pyrazol-3-yl)-3-(difluoro-methoxy)pyridin-2-amine] reads 2.6 nM; that for `CC(C)n1nc(-c2cnc(N)c(OC(F)F)c2)cc1[C@H]1[C@@H]2C[C@@H](N3CCN4CCCC4C3)C[C@@H]21` (single isomer, unassigned) [compound 259], 0.7 nM. The molecule `CC(C)n1nc(-c2cnc(N)c(OC(F)F)c2)cc1[C@H]1[C@@H]2C[C@H](N3CCOCC(F)(F)C3)C[C@@H]21` [compound 181, 5-(5-((1R,3r,5S,6r)-3-(6,6-difluoro-1,4-oxazepan-4-yl)bicyclo [3.1.0]hexan-6-yl)-1-isopropyl-1H-pyrazol-3-yl)-3-(difluoromethoxy) pyridin-2-amine] gave a Ki of 2.4 nM. This Ki is about 3.4-fold higher than that of the molecule before. Turning to `COC1CN([C@@H]2C[C@@H]3[C@H](C2)[C@H]3c2cc(-c3cnc(N)c(C(F)(F)F)c3)nn2CC(F)F)C1` [compound 149, 5-(1-(2,2-difluoroethyl)-5-((1R,3s,5S,6r)-3-(3-methoxyazetidin-1-yl)bicyclo[3.1.0]hexan-6-yl)-1H-pyrazol-3-yl)-3-(trifluoromethyl) pyridin-2-amine], the affinity corresponds to a Ki of 4.1 nM. The figure for `CC(C)n1nc(-c2cnc(N)c(OC(F)F)c2)cc1[C@H]1[C@@H]2C[C@H](N3CCN(C)C[C@@H]3C)C[C@@H]21` [compound 238, 3-(difluoromethoxy)-5-(5-((1R,3r,5S,6S)-3-((S)-2,4-dimethyl-piperazin-1-yl)bicyclo[3.1.0]hexan-6-yl)-1-isopropyl-1H-pyrazol-3-yl)pyridin-2-amine] is 1.6 nM. The result for `CC(C)n1nc(-c2cnc(N)c(OC(F)F)c2)cc1[C@H]1[C@@H]2C[C@@H](N3CCOCC(F)(F)C3)C[C@@H]21` [compound 183, 5-(5-((1R,3s,5S,6r)-3-(6,6-difluoro-1,4-oxazepan-4-yl)bicyclo [3.1.0]hexan-6-yl)-1-isopropyl-1H-pyrazol-3-yl)-3-(difluoro-methoxy)pyridin-2-amine] reads 4.5 nM; that for `COC1CN([C@H]2C[C@@H]3[C@H](C2)[C@H]3c2cc(-c3cnc(N)c(OC(F)F)c3)nn2CC2CC2)C1` [compound 154, 5-(1-(cyclopropylmethyl)-5-((1R,3r,5S,6r)-3-(3-methoxyazetidin-1-yl)bicyclo[3.1.0]hexan-6-yl)-1H-pyrazol-3-yl)-3-(difluoromethoxy)pyridin-2-amine], 0.7 nM.

A word on the Ki: it is the equilibrium dissociation constant of an inhibitor or competing ligand from its target. High values mean lower affinity, low ones higher affinity.

Source of the values: patent US9365583B2, “Substituted pyrazoles and uses thereof” (Genentech, Inc., priority 2013, dated 2016).
